Measured values: ChEMBL document CHEMBL1201862, “PubChem BioAssay data set” (2004)
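Method: 48-hour compound exposure of cells in 96-well plates, five concentrations, linear interpolation of endpoints. GI50 marks 50% less growth.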 Active and inactive are the calls of the source. Rule as the data show it: active = GI50 up to about 1.1 µM and inactive = higher.

Key:
Assay in all cases: inhibition of tumour cell growth, NCI panel, 48 h
SNB-19 = system: SNB-19
U-251 = system: U-251
NCI-H23 = system: NCI-H23
A549 = system: A549
NCI-H460 = system: NCI-H460
CCRF-CEM = system: CCRF-CEM
SW-620 = system: SW-620
HCT-15 = system: HCT-15
SK-OV-3 = system: SK-OV-3
MOLT-4 = system: MOLT-4
SNB-75 = system: SNB-75
SK-MEL-5 = system: SK-MEL-5
K562 = system: K562
UO-31 = system: UO-31
SF-295 = system: SF-295
SN12C = system: SN12C
KM12 = system: KM12
OVCAR-8 = system: OVCAR-8
HL-60 = system: HL-60
HT-29 = system: HT-29

In the case of `COc1ccc2nc3cc(Cl)ccc3c(Sc3ccc(N)cc3)c2c1`, the GI50 (SNB-19) is reported as 16.9 µM (inactive), the GI50 (U-251) is reported as 10.5 µM (inactive) and the GI50 (NCI-H23) is reported as 14.1 µM (inactive). For the same molecule, the GI50 (A549) was 12.5 µM (inactive), the GI50 (NCI-H460) was 7.98 µM (inactive) and the GI50 (CCRF-CEM) was 3.81 µM (inactive). For the same molecule, the GI50 (SW-620) was 3.77 µM (inactive), the GI50 (HCT-15) was 3.94 µM and the GI50 (SK-OV-3) was 4.37 µM (inactive). The GI50 (MOLT-4) was 2.56 µM (inactive), the GI50 (SNB-75) was 11 µM (inactive) and the GI50 (SK-MEL-5) was 12.4 µM (inactive). For the same molecule, the GI50 (K562) was 3.42 µM (inactive), the GI50 (UO-31) was 10.8 µM (inactive) and the GI50 (SF-295) was 16.7 µM (inactive). The GI50 (SN12C) was 11.6 µM (inactive), the GI50 (KM12) was 6.76 µM (inactive) and the GI50 (OVCAR-8) was 11 µM (inactive).

For `COc1c(Br)cc(CC(N)=O)c(O)c1Br`, the GI50 (SNB-19) was > 100 µM (inactive), the GI50 (U-251) was > 100 µM (inactive) and the GI50 (NCI-H23) was > 100 µM (inactive). For the same molecule, the GI50 (A549) was > 100 µM (inactive), the GI50 (CCRF-CEM) was > 100 µM (inactive) and the GI50 (HL-60) was > 100 µM (inactive). For the same molecule, the GI50 (SW-620) was > 100 µM (inactive), the GI50 (SK-OV-3) was > 100 µM (inactive) and the GI50 (MOLT-4) was > 100 µM (inactive). The GI50 (SNB-75) was > 100 µM (inactive), the GI50 (SK-MEL-5) was > 100 µM (inactive) and the GI50 (HT-29) was > 100 µM (inactive). For the same molecule, the GI50 (K562) was > 100 µM (inactive), the GI50 (UO-31) was > 100 µM (inactive) and the GI50 (SF-295) was > 100 µM (inactive). For the same molecule, the GI50 (SN12C) was > 100 µM (inactive), the GI50 (KM12) was > 100 µM (inactive) and the GI50 (OVCAR-8) was > 100 µM (inactive).

With `CN(C)CCCn1c(-c2cc(C(C)(C)C)c(O)c(C(C)(C)C)c2)cs/c1=N\c1ccccc1` the GI50 (SNB-19) was 2.14 µM (inactive), the GI50 (U-251) was 2.93 µM (inactive) and the GI50 (NCI-H23) was 1.68 µM (inactive). The GI50 (A549) was 1.77 µM (inactive), the GI50 (NCI-H460) was 2.35 µM (inactive) and the GI50 (HL-60) was 0.1 µM (active). For the same molecule, the GI50 (SW-620) was 76.6 µM (inactive), the GI50 (HCT-15) was 3.24 µM and the GI50 (SK-OV-3) was 1.96 µM (inactive). The GI50 (MOLT-4) was 0.131 µM (active), the GI50 (SNB-75) was 3.88 µM (inactive) and the GI50 (UO-31) was 1.97 µM (inactive). For the same molecule, the GI50 (SF-295) was 1.79 µM (inactive), the GI50 (SN12C) was 2.08 µM (inactive) and the GI50 (KM12) was 1.91 µM (inactive). The GI50 (OVCAR-8) was 1.97 µM (inactive).

For `COc1cc(C2C(C(=O)O)=C(CO)Oc3cc4c(cc32)OCO4)cc(OC)c1O` (configuration not stated), the GI50 (SNB-19) was > 100 µM (inactive), the GI50 (U-251) was > 100 µM (inactive) and the GI50 (A549) was > 100 µM (inactive). The GI50 (NCI-H460) was > 100 µM (inactive), the GI50 (CCRF-CEM) was > 100 µM (inactive) and the GI50 (HL-60) was > 100 µM (inactive). The GI50 (SW-620) was > 100 µM (inactive), the GI50 (HCT-15) was over 100 µM and the GI50 (SK-OV-3) was > 100 µM (inactive). The GI50 (MOLT-4) was > 100 µM (inactive), the GI50 (SNB-75) was > 100 µM (inactive) and the GI50 (SK-MEL-5) was > 100 µM (inactive). The GI50 (HT-29) was > 100 µM (inactive), the GI50 (K562) was > 100 µM (inactive) and the GI50 (UO-31) was > 100 µM (inactive). The GI50 (SF-295) was > 100 µM (inactive), the GI50 (SN12C) was > 100 µM (inactive) and the GI50 (OVCAR-8) was > 100 µM (inactive).

With `CC(=O)C1CC[C@@H]2[C@H](CC[C@]3(C)[C@@H](O)CC[C@@H]23)[C@H]1C(=O)O` (some centres not stated) the GI50 (SNB-19) was > 100 µM (inactive), the GI50 (U-251) was > 100 µM (inactive) and the GI50 (NCI-H23) was > 100 µM (inactive). The GI50 (A549) was > 100 µM (inactive), the GI50 (NCI-H460) was > 100 µM (inactive) and the GI50 (CCRF-CEM) was > 100 µM (inactive). The GI50 (HL-60) was > 100 µM (inactive), the GI50 (SW-620) was > 100 µM (inactive) and the GI50 (HCT-15) was over 100 µM. The GI50 (SK-OV-3) was > 100 µM (inactive), the GI50 (MOLT-4) was > 100 µM (inactive) and the GI50 (SK-MEL-5) was > 100 µM (inactive). The GI50 (HT-29) was > 100 µM (inactive), the GI50 (K562) was > 100 µM (inactive) and the GI50 (UO-31) was > 100 µM (inactive). The GI50 (SF-295) was > 100 µM (inactive), the GI50 (KM12) was > 100 µM (inactive) and the GI50 (OVCAR-8) was > 100 µM (inactive).

With `O=C(O)C12CCCCC1CCCC2` (configuration not stated) the GI50 (SNB-19) was > 100 µM (inactive), the GI50 (U-251) was > 100 µM (inactive) and the GI50 (NCI-H23) was > 100 µM (inactive). For the same molecule, the GI50 (A549) was > 100 µM (inactive), the GI50 (NCI-H460) was > 100 µM (inactive) and the GI50 (CCRF-CEM) was > 100 µM (inactive). The GI50 (HL-60) was > 100 µM (inactive), the GI50 (SW-620) was > 100 µM (inactive) and the GI50 (HCT-15) was over 100 µM. The GI50 (SK-OV-3) was > 100 µM (inactive), the GI50 (MOLT-4) was > 100 µM (inactive) and the GI50 (SNB-75) was 98.2 µM (inactive). The GI50 (SK-MEL-5) was > 100 µM (inactive), the GI50 (HT-29) was > 100 µM (inactive) and the GI50 (K562) was > 100 µM (inactive). For the same molecule, the GI50 (SF-295) was > 100 µM (inactive), the GI50 (SN12C) was > 100 µM (inactive) and the GI50 (KM12) was > 100 µM (inactive). For the same molecule, the GI50 (OVCAR-8) was > 100 µM (inactive).
